Reference: patent US20150158914A1, “PEPTIDES, CONSTRUCTS AND USES THEREFOR” (priority 2010, published 2015)
“Also recorded” adds a separate entry of the source. Read-outs that look alike come from different tables or passages of the source. Ends that are not written are not given here. * marks the point of attachment. FITC = O=C1OC2(c3ccc(O)cc3Oc3cc(O)ccc32)c2ccc(NC(=S)*)cc21; Biotin = O=C1N[C@H]2[C@H](CS[C@H]2CCCCC(=O)*)N1; Acp = not defined here

What was measured:
HepG2 cells = assay: Assay for cell permeability of X-protein peptides (fluorescence and confocal microscopy); assay type: cell-based, human; conditions: for uptake by HepG2 cells (cell permeability): FITC-labelled peptide 10 μM, 3 h, medium without FCS; for intracellular distribution (confocal slicing): FITC-labelled peptide, HepG2 cells
Description: The cells were then incubated overnight at 37° and 5% CO2, and then washed thrice with media without FCS. The X-protein peptide in 250 μl of appropriate media without FCS was added to the cells at a final concentration of 10 μM, and the slides incubated for 3 h at 37° C. and 5% CO2. The cells were washed with PBS, fixed with 4% formaldahyde in PBS for 30 min, and washed thrice with PBS. […] The slides were dried overnight in the dark, and examined by microscopy by using a Nikon E600 fluorescent microscope. Photos were taken using Nikon ACT-1 software. For further examination, slides were then examined by confocal microscopy using a Leica TCS-SP2 confocal microscope.

[1] = biological target: T1, X-protein N-terminal peptide 1-50 (Hepatitis B virus genotype C subtype adr, UniProt Q81163, DEL44-44/P38S/S41A/S42F/V5L); assay: Peptide binding assay: FITC-peptides on peptide 1-50-coated plates; conditions: FITC-peptide at 10, 20, 40 μg/ml, 30 min
T1 construct: The parent peptide containing aa 1-50 conjugated N-terminally to a biotin tag; purchased; host or cells: chemical synthesis
Description: Qligomerization peptides were received in powdered form, and were weighed and diluted in a sterile 10% DMSO solution to make a 10 mg/ml stock solution. The wells of a Reactibind neutravidin-coated 96 well plate (Thermoscientific cat #15507) were thrice washed with 200 μl of plate washing buffer. Peptide 1-50, which contains a biotin tag, was diluted to 10 μg/ml in wash buffer and 100 μl of the solution was placed into each well being used. The plate was incubated at room temperature for 2 h, and the wells washed thrice with 200 μl of wash buffer. Truncated fluorescent variants of peptide 1-50 at 40 μg/ml, 20 μg/ml, and 10 μg/ml were added to the wells in triplicate, and the plates incubated at room temperature for 30 min. The wells were then washed thrice with 200 μl of wash buffer under low light conditions, and the plate read on a Biotek fluorescent plate reader at an excitation wavelength of 490 nm and an emission wavelength of 520 nm.
A ligand-binding assay was performed using streptavidin-coated plates in order to define the minimum peptide motif needed for dimerization of the X-protein. In this scenario the X-protein monomer serves as its own ligand. […] A series of short peptides from the region encoding aa 1-50 were synthesized. The parent peptide containing aa 1-50 conjugated N-terminally to a biotin tag was added to the streptavidin coated plates. […] Non-biotinylated peptides encoding aa 1-20, 16-35, 21-40 and 34-53 were added at 10, 20, and 40 μg/ml to the wells coated with peptide aa 1-50. The smaller peptides were each conjugated to a FITC tag for detection using a fluorescent plate reader. […] Binding performed with lesser concentrations of the peptides was not significant. Even smaller peptides encompassing that region 16-35 were made to determine whether the aa 16-35 was the minimum peptide motif needed for X-protein dimerization. These peptides synthesized, namely aa 16-26, 16-24, and 16-22 were analyzed using the same peptide binding assay. […] Thus of the peptides examined, the minimal peptide motif needed for dimerization of the X-protein is the […] peptide 16-35.

mutated B-Raf = mutated B-Raf (Homo sapiens, UniProt P15056, V600E); conditions: in vivo; cited from earlier work
Sequence of mutated B-Raf (P15056 whole entry V600E, the tested form may be a part): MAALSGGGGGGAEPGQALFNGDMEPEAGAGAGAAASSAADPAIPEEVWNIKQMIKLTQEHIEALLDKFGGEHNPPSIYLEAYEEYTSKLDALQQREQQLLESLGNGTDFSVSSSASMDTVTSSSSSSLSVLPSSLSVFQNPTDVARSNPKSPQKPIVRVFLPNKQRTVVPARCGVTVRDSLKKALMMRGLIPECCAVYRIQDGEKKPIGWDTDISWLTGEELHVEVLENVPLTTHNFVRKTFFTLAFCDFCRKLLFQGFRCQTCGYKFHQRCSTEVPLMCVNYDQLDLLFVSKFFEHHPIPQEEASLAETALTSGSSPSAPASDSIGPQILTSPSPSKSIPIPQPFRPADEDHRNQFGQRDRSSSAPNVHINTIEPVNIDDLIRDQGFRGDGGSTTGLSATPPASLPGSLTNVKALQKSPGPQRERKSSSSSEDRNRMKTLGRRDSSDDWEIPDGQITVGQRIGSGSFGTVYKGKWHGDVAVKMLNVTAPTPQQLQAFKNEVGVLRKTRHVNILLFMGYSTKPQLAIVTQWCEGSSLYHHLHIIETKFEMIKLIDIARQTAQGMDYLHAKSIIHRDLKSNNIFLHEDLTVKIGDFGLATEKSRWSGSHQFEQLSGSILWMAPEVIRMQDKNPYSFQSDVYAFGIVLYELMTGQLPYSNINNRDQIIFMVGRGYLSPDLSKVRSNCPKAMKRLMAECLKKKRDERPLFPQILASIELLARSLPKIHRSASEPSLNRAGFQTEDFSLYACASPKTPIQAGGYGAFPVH

X-protein = assay: Western blot of X-protein in transfected HepG2 cells treated with X-protein-degradation domain fusion peptides; assay type: cell-based, hepatitis B virus; conditions: HepG2 transfected with pCDNA3.1-HBX or pCDNA3-HBX Myc; 10 μM peptide at 3 h, 24 h and 48 h post transfection
Description: HepG2 cells were seeded into 6 well plates at 1×10^6 cells per well in MEM medium supplemented with 10% FCS, and cultured overnight at 37° and 5% CO2. No PSG antibiotic was added to the medium as it can interfere with transfection efficiency. The medium was then removed and replaced with MEM medium without 10% FCS. The amount of DNA used for transfection was 4 μg. Firstly, 4 μg of DNA was mixed with 250 μl of Opti-MEM medium, and then 4 μl of polymag transfection reagent was added. The mixture was incubated for 20 min and then added to the cells. The plate was placed onto a magnetic plate on a rotating platform for 20 min.
Cell-permeable X-protein-degradation domain fusion peptides were added at a concentration of 10 μM to the cells in MEM without 10% FCS and cells incubated for 45 h. […] An additional 10 μM of peptide was added after 3 h of incubation, and a further 10 μM of peptide was added after 21 h incubation. When the additional aliquots of peptide were added, the cells were washed in MEM without FCS, the peptides added, and the cells incubated for 3 h before changing the medium to MEM containing 10% FCS and PSG. The cells were lysed and analyzed by Western blot analysis for expression of the X-proteins.
Cells were washed with PBS, and detached from plates by incubation with trypsin diluted in PBS. Cells were washed with MEM containing FCS to inactivate trypsin, and pelleted by centrifugation at 175 g for 5 min. They were then resuspended in 1 ml of PBS, and a 10 μl sample was removed, stained with Trypan blue, and cell number counted with a haemocytometer. The cells were then pelleted at 4,000 g for 5 min and thrice washed in PBS. All traces of liquid were removed and the cells were ready for cell lysis. Complete Lysis Buffer was added to the cells at 20 μl per 1×10^6 cells. The cells were resuspended very well to aid lysis and then left on ice for 10 min. They were centrifuged at 15,000 g for 10 min, and the supernatant collected and saved. The nuclear precipitate was processed by adding 13 μl of lysis buffer, 2 μl of 2% SDS, 2 μl of Na deoxycholate, 2 μl of DNAse buffer and 1 μl of DNAse I. The sticky cell lysate was resuspended vigorously after each reagent was added then incubated at 37° for 10 min.
The two X-protein-ODD fusion peptides were tested for their ability to decrease the level of X-protein expression. HepG2 cells were transfected with 4 μg of either the X-protein plasmids pCDNA3.1-HBX and pCDNA3-HBX Myc, or 4 μg of the pCDNA3-GFP vector. The X-protein-ODD fusion peptides were repetitively added to the cells at 3 h, 24 h and 48 h post transfection. Control transfectants were not treated with peptide, but were otherwise cultured under the same conditions. Transfectants were subjected to Western blotting to determine whether the X-protein was expressed. […]

[2] = test system: TK-1 T cells adherent to MAdCAM-1; assay: Carriage of a foreign peptide into TK-1 cells; assay type: cell-based; conditions: 50 μM, 30 min, streptavidin-FITC detection
Description: Eight-well glass chamber slides were coated overnight at 4° C. with MAdCAM-1-Fc. They were blocked with FCS at RT for 2 h. TK-1 T cells were activated with 2 mM Mn2+/Ca2+ in HBSS buffer and added to MAdCAM-1 coated glass slides, followed by incubation for 15 min. Peptides […] (SEQ ID NO 15) and R9YDRREY (SEQ ID NO 14) were added at 50 μM followed by incubation for 30 min. The cells were fixed overnight in 4% PFA, permeabilised with PBS+0.1% Tween 20 for 15 min, blocked with 3% BSA in PBS for 1 h, and the presence of the peptides detected with FITC-Streptavidin (1:200 dilution in 3% BSA in PBS 1 h). Slides were mounted with Prolong gold with DAPI.
The X-protein cell-permeable peptide LCLRPVG (SEQ ID NO: 2) was fused to the hexapeptide YDRREY (SEQ ID NO 16) taken from the cytoplasmic domain of the human integrin β7 subunit. The peptides were separated by a glycine linker, and a biotin tag was added N-terminally. The fusion peptide was compared with the YDRREY (SEQ ID NO 16) peptide fused to an R9 (SEQ ID NO: 145) carrier peptide for its ability to enter TK-1 T cells adherent to MAdCAM-1.

C32 melanoma cells = conditions: C32, 10 μM, 3 h
Description: (§1) The melanoma cell lines WM-266-4 and C32 were seeded into 8-well chamber slides at 1×10^5 cells per well in full MEM media and incubated at 37° C. and 5% CO2 overnight. The next day the cells were washed thrice with serum-free MEM, resuspended in 500 μl of the same medium, and added to the wells. […] Annexin-V labelling solution was prepared by adding 20 μl of Annexin V labelling reagent and 10 μl of propidium iodide in 1 ml of incubation buffer. The cells were washed with incubation buffer, and 100 μl of Annexin-V labelling solution was added, followed by incubation for 15 min in the dark. The cells were washed with incubation buffer, fixed with 4% formaldehyde in PBS for 30 min, washed with PBS and slide chambers removed. A drop of Prolong Gold anti-fade reagent with DAPI was added to each sample, the slides dried overnight, and then examined by fluorescence microscopy.

WM-266-4 melanoma cells [3] = conditions: WM-266-4, 20 μM, 3 h
Description: as §1

WM-266-4 melanoma cells [4] = assay: Apoptosis by anti-B-raf antibody delivered with the carrier peptide (Annexin-V fluos); assay type: cell-based; conditions: 1 μg/ml, 3 h
Description: The carrier peptide-rabbit anti-B-raf antibody conjugate (1 μg/ml), the unconjugated carrier peptide and unconjugated anti-B-raf antibody (1 μg/ml) were added to WM-266-4 melanoma cells, and cell apoptosis was assessed after 3 h by addition of Annexin-V fluos, with visualization by fluorescence microscopy. Untreated cells were included as an additional control. Cell nuclei were stained with DAPI. The results were merged to illustrate the numbers of cells that underwent apoptosis compared with the total number of cells ie the proportion of cells that underwent apoptosis.

[5] = listed as biotin-RRRRRRRRHKLVRSPAPCKFFTSAGGLNVTAPTPQQLQAFKNEVGVLRK

With “MAARLCCQ (cysteine pairing not given here; also: fluorescein label, position not given here) [Peptide 1-8]” the “uptake by HepG2 cells (cell permeability)” value (from here on “uptake by HepG2 cells”) (HepG2 cells) was “cell-permeable”.

For LCLRPVGAESRGRPV [Peptide 16-30], the “binding to peptide 1-50 (fluorescence)” value [1] was “binds to the X-protein N-terminal peptide 1-50; also recorded: bound peptide 1-50 even more strongly than peptide 16-35”.

In the case of “FITC-LCLRP ({FITC}-LCLRP) [Peptide 16-20]”, the “uptake by HepG2 cells” value (HepG2 cells; listed as aa 16-20) is reported as “cell-permeable; also recorded: taken up into the cells”.

In the case of `CCCS(=O)(=O)Nc1ccc(F)c(C(=O)c2c[nH]c3ncc(-c4ccc(Cl)cc4)cc23)c1F` [PLX4032], the “patients with regression of melanomas” value (mutated B-Raf) is given as 80 % of patients.

With “Biotin-RRRRRRRRHKLVRSPAPCKFFTSAGGLCLRPVGAESRGRPVSGPFG (cysteine pairing not given here)” the “degradation of the X-protein (Western blot, nuclear fraction)” value (X-protein) was “complete degradation of the X-protein”.

In the case of “FITC-Acp-VGAESRGRPVSGPFGPLSSP ({FITC-Acp}-VGAESRGRPVSGPFGPLSSP; reading uncertain; also: printed as FITC-Acp-VGAESRGRPVSGPFGPLSSP) [Peptide 21-40]”, the “binding to peptide 1-50 (fluorescence)” value [1] is reported as “failed to appreciably bind peptide 1-50” and the “uptake by HepG2 cells” value (HepG2 cells) is reported as “not cell-permeable”.

For MAARLCCQLDPARDV [Peptide 1-15], the “uptake by HepG2 cells” value (HepG2 cells; listed as aa 1-15) was “cell-permeable; also recorded: taken up into the cells” and the “intracellular distribution (confocal slicing)” value (HepG2 cells) was “taken up into the cytoplasm and nucleus”.

With “FITC-Acp-MAARLCCQLDPARDVLCLRP [Peptide 1-20]” the “uptake by HepG2 cells” value (HepG2 cells; listed as aa 1-20) was “cell-permeable; also recorded: readily taken up by the cells” and the “intracellular distribution (confocal slicing)” value (HepG2 cells) was “taken up into the cell cytoplasm, as well as into the nucleus”.

In the case of “FITC-LCLRPVGAE ({FITC}-LCLRPVGAE) [Peptide 16-24]”, the “binding to peptide 1-50 (fluorescence)” value [1] is reported as “could not match the strong binding shown by the parental peptide 16-35” and the “uptake by HepG2 cells” value (HepG2 cells; listed as aa 16-24) is reported as “cell-permeable, being taken up by cells at a level equivalent to that of the parental peptide aa 16-35”.

In the case of “FITC-Acp-RRRRRRRRMLAPYIPMGGLCLRPVGAESRGRPVSGPFG”, the “degradation of the X-protein (Western blot, nuclear fraction)” value (X-protein) is reported as “complete degradation of the X-protein”.

With “FITC-LCLRPVGAESR ({FITC}-LCLRPVGAESR) [Peptide 16-26]” the “binding to peptide 1-50 (fluorescence)” value [1] was “could not match the strong binding shown by the parental peptide 16-35” and the “uptake by HepG2 cells” value (HepG2 cells; listed as aa 16-26) was “cell-permeable, being taken up by cells at a level equivalent to that of the parental peptide aa 16-35”.

In the case of “FITC-Acp-FGPLSSPAFSVPADHGAHLS ({FITC-Acp}-FGPLSSPAFSVPADHGAHLS; reading uncertain; also: printed as FITC-Acp-FGPLSSPAFSVPADHGAHLS) [Peptide 34-53]”, the “uptake by HepG2 cells” value (HepG2 cells) is reported as “not cell-permeable”.

For “R9YDRREY (RRRRRRRRRYDRREY; not fully specified (N-terminus); also: biotin, position not given here) [Peptide R9YDRREY, biotinylated YDRREY peptide fused to an R9 carrier peptide, reference compound]”, the “uptake of biotinylated fusion peptide into TK-1 cells” value [2] was “entered all the cells”.

For “Biotin-RRRRRRRRLCLRPVGAESRGRPVSGPFGGCRHKLVRSPAPCKFFTSA (cysteine pairing not given here)”, the “degradation of the X-protein (Western blot, nuclear fraction)” value (X-protein) was “near complete degradation of the X-protein, with slight preference for the full length protein”.

For “FITC-Acp-RRRRRRRRLCLRPVGAESRGRPVSGPFGGMLAPYIPM”, the “degradation of the X-protein (Western blot, nuclear fraction)” value (X-protein) was “near complete degradation of the X-protein”.

In the case of “Biotin-RRRRRRRRHKLVRSPAPCKFFTSAGGLNVTAPTPQQLQAFKNEVGVLRK [B-Raf targeting peptide]”, the “tumour cell death / apoptosis” value (C32 melanoma cells) is reported as “killed the melanoma cells”, the “tumour cell death / apoptosis” value (C32 melanoma cells; [5]) is reported as “led to tumour cell death” and the “tumour cell death / apoptosis” value (WM-266-4 melanoma cells [3]) is reported as “killed the melanoma cells”. For the same molecule, the “tumour cell death / apoptosis” value (WM-266-4 melanoma cells [3]; [5]) was “led to tumour cell death”.

In the case of “LCLRPVGGYDRREY (Biotin-LCLRPVGGYDRREY) [biotinylated LCLRPVG fused via glycine linker to β7 integrin hexapeptide YDRREY]”, the “uptake of biotinylated fusion peptide into TK-1 cells” value [2] is reported as “uniformly taken up in similar amounts by all cells”.

With Biotin-LCLRPVGGGRRRQQQQQQRRR the cell apoptosis (WM-266-4 melanoma cells [4]) was “no detectable effect”.
